From PubChem BioAssay (NCI)
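These data come from cells grown in 96-well plates and exposed to compound for 48 hours at five concentrations. Definition used: TGI = concentration required for complete inhibition of growth.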

Columns and labels:
Assay in all cases: NCI tumour cell line growth inhibition, 48 h
A549 NSCLC = system: A549 NSCLC
HT29 colon = system: HT29 colon
SK-MEL-5 melanoma = system: SK-MEL-5 melanoma
SF-268 CNS = system: SF-268 CNS
HCC-2998 colon = system: HCC-2998 colon
UACC-62 melanoma = system: UACC-62 melanoma
SN12C renal = system: SN12C renal
OVCAR-4 ovarian = system: OVCAR-4 ovarian
NCI-H226 lung = system: NCI-H226 lung
CCRF-CEM leukemia = system: CCRF-CEM leukemia
DU-145 prostate = system: DU-145 prostate
IGROV1 ovarian = system: IGROV1 ovarian
MALME-3M melanoma = system: MALME-3M melanoma
HCT-116 colon = system: HCT-116 colon
LOX IMVI melanoma = system: LOX IMVI melanoma
HS 578T breast = system: HS 578T breast
RPMI-8226 leukemia = system: RPMI-8226 leukemia
HCT-15 colon = system: HCT-15 colon
786-0 renal = system: 786-0 renal
SNB-75 CNS = system: SNB-75 CNS
SK-MEL-28 melanoma = system: SK-MEL-28 melanoma
SNB-19 CNS = system: SNB-19 CNS
T-47D breast = system: T-47D breast
SF-295 CNS = system: SF-295 CNS
HL-60(TB) leukemia = system: HL-60(TB) leukemia
MCF7 breast = system: MCF7 breast
A498 renal = system: A498 renal
ACHN renal = system: ACHN renal
PC-3 prostate = system: PC-3 prostate
MDA-N = system: MDA-N
UO-31 renal = system: UO-31 renal
OVCAR-8 ovarian = system: OVCAR-8 ovarian
TK-10 renal = system: TK-10 renal
SK-MEL-2 melanoma = system: SK-MEL-2 melanoma
UACC-257 melanoma = system: UACC-257 melanoma
NCI-H460 lung = system: NCI-H460 lung
RXF 393 renal = system: RXF 393 renal
CAKI-1 renal = system: CAKI-1 renal
COLO 205 colon = system: COLO 205 colon
NCI/ADR-RES ovarian = system: NCI/ADR-RES ovarian
MDA-MB-435 = system: MDA-MB-435
U251 CNS = system: U251 CNS
EKVX NSCLC = system: EKVX NSCLC
OVCAR-5 ovarian = system: OVCAR-5 ovarian
HOP-92 NSCLC = system: HOP-92 NSCLC
NCI-H522 lung = system: NCI-H522 lung
NCI-H23 lung = system: NCI-H23 lung
OVCAR-3 ovarian = system: OVCAR-3 ovarian
BT-549 breast = system: BT-549 breast
KM12 colon = system: KM12 colon
SW-620 colon = system: SW-620 colon
K-562 leukemia = system: K-562 leukemia
HOP-62 NSCLC = system: HOP-62 NSCLC
MDA-MB-231 breast = system: MDA-MB-231 breast
M14 melanoma = system: M14 melanoma
SK-OV-3 ovarian = system: SK-OV-3 ovarian
MOLT-4 leukemia = system: MOLT-4 leukemia
SF-539 CNS = system: SF-539 CNS

Oc1cccc2cc(Cl)cnc12
TGI (A549 NSCLC): > 100 µM
TGI (HT29 colon): > 69.2 µM
TGI (SK-MEL-5 melanoma): 99.1 µM
TGI (SF-268 CNS): > 100 µM
TGI (HCC-2998 colon): > 88.4 µM
TGI (UACC-62 melanoma): > 44.7 µM
TGI (SN12C renal): > 100 µM
TGI (OVCAR-4 ovarian): > 90.6 µM
TGI (NCI-H226 lung): 97.5 µM
TGI (CCRF-CEM leukemia): 15.5 µM
TGI (DU-145 prostate): > 100 µM
TGI (IGROV1 ovarian): > 83.4 µM
TGI (MALME-3M melanoma): > 100 µM
TGI (HCT-116 colon): 37.8 µM
TGI (LOX IMVI melanoma): > 64.1 µM
TGI (HS 578T breast): > 83.5 µM
TGI (RPMI-8226 leukemia): 61.6 µM
TGI (HCT-15 colon): > 100 µM
TGI (786-0 renal): > 100 µM
TGI (SNB-75 CNS): > 100 µM
TGI (SK-MEL-28 melanoma): > 100 µM
TGI (SNB-19 CNS): > 100 µM
TGI (T-47D breast): > 68.5 µM
TGI (SF-295 CNS): > 100 µM
TGI (HL-60(TB) leukemia): 6.27 µM
TGI (MCF7 breast): > 100 µM
TGI (A498 renal): > 77.5 µM
TGI (ACHN renal): > 100 µM
TGI (PC-3 prostate): > 100 µM
TGI (MDA-N): > 100 µM
TGI (UO-31 renal): > 100 µM
TGI (OVCAR-8 ovarian): > 100 µM
TGI (TK-10 renal): > 100 µM
TGI (SK-MEL-2 melanoma): > 100 µM
TGI (UACC-257 melanoma): 81.7 µM
TGI (NCI-H460 lung): > 100 µM
TGI (RXF 393 renal): > 79.6 µM
TGI (CAKI-1 renal): > 100 µM
TGI (COLO 205 colon): > 100 µM
TGI (NCI/ADR-RES ovarian): 30.3 µM
TGI (MDA-MB-435): > 100 µM
TGI (U251 CNS): > 100 µM
TGI (EKVX NSCLC): 98.9 µM
TGI (OVCAR-5 ovarian): > 100 µM
TGI (HOP-92 NSCLC): > 100 µM
TGI (NCI-H522 lung): 22 µM
TGI (NCI-H23 lung): > 100 µM
TGI (OVCAR-3 ovarian): > 31.1 µM
TGI (BT-549 breast): > 100 µM
TGI (KM12 colon): > 100 µM
TGI (SW-620 colon): > 100 µM
TGI (K-562 leukemia): 38.3 µM
TGI (HOP-62 NSCLC): > 100 µM
TGI (MDA-MB-231 breast): > 100 µM
TGI (M14 melanoma): > 100 µM
TGI (SK-OV-3 ovarian): > 100 µM
TGI (MOLT-4 leukemia): 27.4 µM
TGI (SF-539 CNS): 99 µM

CN(C)c1ccc(/C=C2\N=C(N/N=C/c3ccc(N(C)C)cc3)NC2=O)cc1
TGI (A549 NSCLC): > 100 µM
TGI (HT29 colon): > 100 µM
TGI (SK-MEL-5 melanoma): > 100 µM
TGI (SF-268 CNS): > 100 µM
TGI (HCC-2998 colon): > 100 µM
TGI (UACC-62 melanoma): > 100 µM
TGI (SN12C renal): > 100 µM
TGI (OVCAR-4 ovarian): > 100 µM
TGI (NCI-H226 lung): > 100 µM
TGI (CCRF-CEM leukemia): > 100 µM
TGI (DU-145 prostate): 96 µM
TGI (IGROV1 ovarian): > 100 µM
TGI (MALME-3M melanoma): > 100 µM
TGI (HCT-116 colon): > 100 µM
TGI (HS 578T breast): > 100 µM
TGI (RPMI-8226 leukemia): > 100 µM
TGI (HCT-15 colon): > 100 µM
TGI (786-0 renal): > 100 µM
TGI (SNB-75 CNS): > 100 µM
TGI (SK-MEL-28 melanoma): > 100 µM
TGI (SNB-19 CNS): > 100 µM
TGI (T-47D breast): > 100 µM
TGI (SF-295 CNS): > 100 µM
TGI (HL-60(TB) leukemia): > 100 µM
TGI (MCF7 breast): > 100 µM
TGI (A498 renal): > 100 µM
TGI (ACHN renal): > 100 µM
TGI (PC-3 prostate): > 100 µM
TGI (MDA-N): > 100 µM
TGI (UO-31 renal): > 100 µM
TGI (OVCAR-8 ovarian): 72.7 µM
TGI (TK-10 renal): > 100 µM
TGI (SK-MEL-2 melanoma): > 100 µM
TGI (UACC-257 melanoma): > 100 µM
TGI (NCI-H460 lung): > 100 µM
TGI (RXF 393 renal): 53.8 µM
TGI (CAKI-1 renal): > 100 µM
TGI (COLO 205 colon): > 100 µM
TGI (NCI/ADR-RES ovarian): > 100 µM
TGI (MDA-MB-435): > 100 µM
TGI (U251 CNS): > 100 µM
TGI (EKVX NSCLC): > 100 µM
TGI (OVCAR-5 ovarian): > 100 µM
TGI (HOP-92 NSCLC): 98.4 µM
TGI (NCI-H522 lung): > 100 µM
TGI (NCI-H23 lung): > 100 µM
TGI (OVCAR-3 ovarian): > 100 µM
TGI (BT-549 breast): > 100 µM
TGI (KM12 colon): > 100 µM
TGI (SW-620 colon): > 100 µM
TGI (HOP-62 NSCLC): > 100 µM
TGI (MDA-MB-231 breast): > 100 µM
TGI (M14 melanoma): > 100 µM
TGI (SK-OV-3 ovarian): > 100 µM
TGI (MOLT-4 leukemia): > 100 µM
